Laboratory results reported in patent US20190119251A1, “AMIDE-SUBSTITUTED ARYLTRIAZOLE DERIVATIVES AND USES THEREOF” (BAYER PHARMA AKTIENGESELLSCHAFT, priority 2016, published 2019).

Legend:
human V2 receptor = biological target: T1, human V2 receptor (Homo sapiens, UniProt P30518); test: Cellular in vitro assay for determining vasopressin receptor activity (V2 cell line, CRE-luciferase); format: cell-based; conditions: CHO cell line transfected with the human V2 receptor; agonist [Arg8]-vasopressin at EC50 concentration; 3 hours incubation; read-out: IC50 hV2
T1 construct: expressed in transfected cells; host or cells: CHO K1 (Chinese hamster ovary) expressing firefly luciferase under a CRE-responsive promoter
T1 sequence (P30518 whole entry): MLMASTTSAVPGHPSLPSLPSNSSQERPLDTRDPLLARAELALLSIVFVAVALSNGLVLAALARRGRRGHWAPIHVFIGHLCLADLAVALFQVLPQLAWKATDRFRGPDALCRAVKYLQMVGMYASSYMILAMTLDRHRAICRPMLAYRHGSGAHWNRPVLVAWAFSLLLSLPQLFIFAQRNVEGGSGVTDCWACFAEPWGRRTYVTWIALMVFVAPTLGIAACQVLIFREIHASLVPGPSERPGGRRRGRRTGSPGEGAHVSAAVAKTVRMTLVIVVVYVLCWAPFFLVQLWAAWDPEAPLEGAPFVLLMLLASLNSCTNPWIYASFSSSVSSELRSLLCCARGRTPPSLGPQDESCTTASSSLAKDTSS
Method: (§1) B-1. Cellular In Vitro Assay for Determining Vasopressin Receptor Activity
(§2) The identification of agonists and antagonists of the V 1 a and V2 vasopressin receptors from humans, rats and dogs as well as the quantification of the activity of the compounds of the invention is carried out using recombinant cell lines. These cell lines originally derive from a hamster's ovary epithelial cell (Chinese Hamster Ovary, CHO K1, ATCC: American Type Culture Collection, Manassas, Va. 20108, USA). The test cell lines constitutively express the human, rat or dog
(§3) V1 a or V2 receptors. In case of the Gag-coupled V 1 a receptors, cells are also stably transfected with a modified form of the calcium-sensitive photoproteins aequorin (human and rat V1a) or obelin (dog V 1 a), which, after reconstitution with the cofactor coelenterazine, emit light when there are increases in free calcium concentrations [Rizzuto R, Simpson A W, Brini M, Pozzan T, Nature 358, 325-327 (1992); Illarionov B A, Bondar V S, Illarionova V A, Vysotski E S, Gene 153 (2), 273-274 (1995)]. The resulting vasopressin receptor cells react to stimulation of the recombinantly expressed V 1 a receptors by intracellular release of calcium ions, which can be quantified by the resulting photoprotein luminescence. The Gs-coupled V2 receptors are stably transfected into cell lines expressing the gene for firefly luciferase under control of a CRE-responsible promoter. Activation of V2 receptors induces the activation of the CRE-responsive promoter via cAMP increase, thereby inducing the expression of firefly luciferase. The light emitted by photoproteins of V1a cell lines as well as the light emitted by firefly luciferase of V2 cell lines corresponds to the activation or inhibition of the respective vasopressin receptor. The bioluminescence of the cell lines is detected using a suitable luminometer [Milligan G, Marshall F, Rees S, Trends in Pharmacological Sciences 17, 235-237 (1996)].
Vasopressin V2 Receptor Cell Lines:
On the day before the assay, the cells are plated out in culture medium (DMEM/F12, 2% FCS, 2 mM glutamine, 10 mM HEPES) in 384-well microtiter plates and kept in a cell incubator (96% humidity, 5% v/v CO2, 37° C.). On the day of the assay, test compounds in various concentrations and the agonist [Arg^8]-vasopressin at EC50 concentration are added together to the wells, and plates are incubated for 3 hours in a cell incubator. Upon addition of the cell lysis reagent Triton™ and the substrate luciferin, luminescence of firefly luciferase is measured in a luminometer.
(§4) Table 1A below lists individual IC50 values for the compounds of the invention (including racemic mixtures as well as separated enantiomers) that were obtained from cell lines transfected with the human V1a or V2 receptor: […]

human V1a receptor = biological target: T2, human V1a receptor (Homo sapiens, UniProt P37288); test: Cellular in vitro assay for determining vasopressin receptor activity (V1a cell line, aequorin luminescence); format: cell-based; conditions: for IC50: CHO cell line transfected with the human V1a receptor, agonist [Arg8]-vasopressin at EC50 concentration, read-out: IC50 hV1a; for ratio IC50 hV2/hV1a: ratio of cellular IC50 values, human V2 over human V1a
T2 construct: expressed in transfected cells; host or cells: CHO K1 (Chinese hamster ovary), also stably transfected with modified aequorin
T2 sequence (P37288 whole entry): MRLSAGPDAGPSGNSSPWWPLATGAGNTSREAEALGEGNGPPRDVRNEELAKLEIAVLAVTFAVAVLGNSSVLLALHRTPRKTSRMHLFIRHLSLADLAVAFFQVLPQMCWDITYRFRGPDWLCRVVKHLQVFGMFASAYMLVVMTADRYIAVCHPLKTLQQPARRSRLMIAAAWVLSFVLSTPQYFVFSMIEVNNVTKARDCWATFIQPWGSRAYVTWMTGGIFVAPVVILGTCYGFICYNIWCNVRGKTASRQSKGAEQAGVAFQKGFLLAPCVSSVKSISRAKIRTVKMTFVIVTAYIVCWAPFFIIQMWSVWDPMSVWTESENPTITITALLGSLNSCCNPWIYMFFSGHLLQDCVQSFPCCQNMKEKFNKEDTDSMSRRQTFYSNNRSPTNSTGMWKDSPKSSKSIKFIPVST
Method: as §1, §2, §3
Vasopressin V1a Receptor Cell Lines:
On the day before the assay, the cells are plated out in culture medium (DMEM/F12, 2% FCS, 2 mM glutamine, 10 mM HEPES, 5 μg/ml coelenterazine) in 384-well microtiter plates and kept in a cell incubator (96% humidity, 5% v/v CO2, 37° C.). On the day of the assay, test compounds in various concentrations are placed for 10 minutes in the wells of the microtiter plate before the agonist [Arg^8]-vasopressin at EC50 concentration is added. The resulting light signal is measured immediately in a luminometer.
as §4

IC50 (human V2 receptor) [nM]	IC50 (human V1a receptor) [nM]	ratio IC50 hV2/hV1a (human V1a receptor)	SMILES
7	0.45	15.6	NC(=O)c1nc(Cn2nc(-c3ccc(Cl)cc3)n(C[C@H](O)C(F)(F)F)c2=O)nn1-c1ccccc1Br [Example 17, 1-(2-Bromophenyl)-3-({3-(4-chlorophenyl)-5-oxo-4-[(2S)-3,3,3-trifluoro-2-hydroxypropyl]-4,5-dihydro-1H-1,2,4-triazol-1-yl}methyl)-1H-1,2,4-triazole-5-carboxamide]
1.65	0.54	3.1	CSc1ccccc1-n1nc(Cn2nc(-c3ccc(Cl)cc3)n(C[C@H](O)C(F)(F)F)c2=O)nc1C(N)=O [Example 18, 3-({3-(4-Chlorophenyl)-5-oxo-4-[(2S)-3,3,3-trifluoro-2-hydroxypropyl]-4,5-dihydro-1H-1,2,4-triazol-1-yl}methyl)-1-[2-(methylsulfanyl)phenyl]-1H-1,2,4-triazole-5-carboxamide]
4.91	0.65	7.5	Cc1ccccc1-n1nc(Cn2nc(-c3ccc(Cl)cc3)n(C[C@H](O)C(F)(F)F)c2=O)nc1C(N)=O [Example 19, 3-({3-(4-Chlorophenyl)-5-oxo-4-[(2S)-3,3,3-trifluoro-2-hydroxypropyl]-4,5-dihydro-1H-1,2,4-triazol-1-yl}methyl)-1-(2-methylphenyl)-1H-1,2,4-triazole-5-carboxamide]
2.73	0.75	3.7	CCc1ccccc1-n1nc(Cn2nc(-c3ccc(Cl)cc3)n(C[C@H](O)C(F)(F)F)c2=O)nc1C(N)=O [Example 20, 3-({3-(4-Chlorophenyl)-5-oxo-4-[(2S)-3,3,3-trifluoro-2-hydroxypropyl]-4,5-dihydro-1H-1,2,4-triazol-1-yl}methyl)-1-(2-ethylphenyl)-1H-1,2,4-triazole-5-carboxamide]
5.25	0.75	7.0	NC(=O)c1nc(Cn2nc(-c3ccc(Cl)cc3)n(C[C@H](O)C(F)(F)F)c2=O)nn1-c1c(F)cccc1Cl [Example 21, 1-(2-Chloro-6-fluorophenyl)-3-({3-(4-chlorophenyl)-5-oxo-4-[(2S)-3,3,3-trifluoro-2-hydroxypropyl]-4,5-dihydro-1H-1,2,4-triazol-1-yl}methyl)-1H-1,2,4-triazole-5-carboxamide]
3.63	1.65	2.2	NC(=O)c1nc(Cn2nc(-c3ccc(Cl)cc3)n(C[C@H](O)C(F)(F)F)c2=O)nn1-c1c(Cl)cccc1Cl [Example 22, 3-({3-(4-Chlorophenyl)-5-oxo-4-[(2S)-3,3,3-trifluoro-2-hydroxypropyl]-4,5-dihydro-1H-1,2,4-triazol-1-yl}methyl)-1-(2,6-dichlorophenyl)-1H-1,2,4-triazole-5-carboxamide]
2.53	2.45	1.0	Cc1cccc(C)c1-n1nc(Cn2nc(-c3ccc(Cl)cc3)n(C[C@H](O)C(F)(F)F)c2=O)nc1C(N)=O [Example 23, 3-({3-(4-Chlorophenyl)-5-oxo-4-[(2S)-3,3,3-trifluoro-2-hydroxypropyl]-4,5-dihydro-1H-1,2,4-triazol-1-yl}methyl)-1-(2,6-dimethylphenyl)-1H-1,2,4-triazole-5-carboxamide]
30.5	2.6	11.7	NC(=O)c1nc(Cn2nc(-c3ccc(Cl)cc3)n(C[C@H](O)C(F)(F)F)c2=O)nn1-c1ccccc1[N+](=O)[O-] [Example 24, 3-({3-(4-Chlorophenyl)-5-oxo-4-[(2S)-3,3,3-trifluoro-2-hydroxypropyl]-4,5-dihydro-1H-1,2,4-triazol-1-yl}methyl)-1-(2-nitrophenyl)-1H-1,2,4-triazole-5-carboxamide]
